Source: US20260272797A1, “FRAGRANCE COMPOSITION” (GIVAUDAN SA, priority 2023, published 2026)

Tests used:
[1] = Impact of fragrance ingredients on scalp malodour counteractancy of 80 fragrance compositions (Example 2 protocol, statistical presence); settings: series of 80 fragrance compositions
Procedure: In a second set of experiments, the impact of these fragrance ingredients on the scalp malodour counteractancy of a fragrance composition was assessed. The scalp malodour counteractancy of a series of 80 fragrance compositions was assessed by performing the evaluation protocol described in Example 2. […] Ingredients that were statistically more present in fragrances having a high malodour counteractancy were assigned a positive status, whereas ingredients that were statistically more present in compositions having a low malodour counteractancy were assigned a negative status.

[2] = Gas-phase evaluation of each fragrance ingredient alone against model scalp malodour, MiniVAS device, panel of 5 experts; settings: for Scalp MOC of ingredient alone: expert description
Procedure: In a first set of experiments, the scalp malodour counteractancy of 173 fragrance ingredients was evaluated by panel of 5 experts.
The evaluation was performed in the gas phase, using a MiniVAS™ device (ex Givaudan SA). This device is a regulating means that comprises a plurality of channels adapted to convey a gas (more particularly air) through cartridges, each cartridge containing a fragrance ingredient adsorbed onto an adsorbent. The air flows coming from the different cartridges are admixed and conveyed to the user's nose through a tubing fitted with an olfactometer funnel. Thus, by opening and closing channels and maintaining these opened and closed, respectively, for predetermined times, the regulating means can determine which fragrance ingredients and how much thereof are conveyed and when, and thus alter the nature of the fragrance perceived by the user. A description of the device can be found in WO2014154909A1, page 2, line 11 to page 4, line 7, and in H. R. Gygax et al. “Evolution of Real Time Aroma Creation at Givaudan”, poster presented at the 12th Weurman Flavour Research Symposium. July 2008. Interlaken, Switzerland; DOI: 10.13140/2.1.1924.0641.
For the sake of the present evaluation, one cartridge contained the scalp malodour (in the form of a model malodour) and each fragrance ingredient was assigned to another cartridge. The malodour counteractancy of each fragrance ingredient was evaluated separately against the scalp malodour. A constant air flow rate of 50 ml/min was used for all measurements. The perceived malodour intensity, as well as the fragrance intensity, were ranked on a scale of 1-5 (1=barely noticeable, 2=weak, 3=medium, 4=strong and 5=very strong).

[3] = Table 4, air flow 50 ml/min, scale of 1-5
[4] = Table 3, air flow 50 ml/min, scale of 1-5 (1=barely noticeable, 5=very strong)

Row | SMILES | Impact on scalp MOC of fragrance composition ([1]; Table 4) | MO intensity [2, 3] | Impact on scalp MOC of fragrance composition ([1]; Table 3) | MO intensity [2, 4] | Scalp MOC of ingredient alone ([2]; Table 3, gas phase) | Scalp MOC of ingredient alone ([2]; Table 4, gas phase)
1 | CCC(=O)OCc1ccccc1 [benzyl propanoate] | Negative | 1 |  |  |  | 
2 | CC(C)=CCCC(C)CC=O (stereo not shown) [3,7-dimethyloct-6-enal] |  |  | Positive | 3 |  | 
3 | CC(C)CCc1ccc2c(c1)OCC(=O)CO2 [7-isopentyl-2H-benzo[b][1,4]dioxepin-3(4H)-one] |  |  | Positive | 4.5 |  | 
4 | CCCCC/C=C\C=C\C(=O)OCC [(2E,4Z)-ethyl deca-2,4-dienoate] | Negative | 1 |  |  |  | 
5 | CCCCCCCCCC(C)C=O (stereo not shown) [2-methylundecanal] |  |  | Positive | 3.5 |  | 
6 | CC(CCO)CCCC(C)(C)O (stereo not shown) [3,7-dimethyloctane-1,7-diol] |  |  | Positive | 1 | No effect | 
7 | C/C=C/C(=O)C1=C(C)C=CCC1(C)C [(E)-1-(2,6,6-trimethylcyclohexa-1,3-dien-1-yl)but-2-en-1-one] |  |  | Positive | 2.8 |  | 
8 | CC(C=O)Cc1ccc(C(C)(C)C)cc1 (stereo not shown) [3-(4-(tert-butyl)phenyl)-2-methylpropanal] |  |  | Positive | 2.8 |  | 
9 | Cc1ccc2c(c1)OCC(=O)CO2 [8-methyl-1,5-benzodioxepin-3-one] |  |  | Positive | 3.5 |  | 
10 | C/C=C/c1ccc(OC)cc1 [(E)-1-methoxy-4-(prop-1-en-1-yl)benzene] |  |  | Positive | 4 |  | 
11 | CC1(C)[C@H]2CC[C@]1(C)C(=O)C2 [(1S,4S)-1,7,7-trimethylbicyclo[2.2.1]heptan-2-one] |  |  | Positive | 4.5 |  | 
12 | CC(=O)/C(C)=C/C1=C(C)CCCC1(C)C [(E)-3-methyl-4-(2,6,6-trimethylcyclohex-1-en-1-yl)but-3-en-2-one] |  |  | Positive | 3 |  | 
13 | CC(C)CCCC(C)CCO (stereo not shown) [3,7-dimethyloctan-1-ol] |  |  | Positive | 4.3 |  | 
14 | CCCC1(C(C)(C)C)C=CC(C)O1 (stereo not shown) [5-tert-butyl-2-methyl-5-propyl-2H-furan] |  |  | Positive | 4 |  | 
15 | COc1ccc(C=O)cc1 [4-methoxybenzaldehyde] |  |  | Positive | 3 |  | 
16 | CC(C)C(=O)OCCOc1ccccc1 [2-(phenoxy)ethyl 2-methylpropanoate] | Negative | 2.3 |  |  |  | 
17 | CCCC1CCCC(=O)O1 (stereo not shown) [6-propyltetrahydro-2H-pyran-2-one] | Negative | 3.8 |  |  |  | 
18 | CC(=O)c1cc2c(cc1C)C(C)(C)C(C)CC2(C)C (stereo not shown) [1-(3,5,5,6,8,8-hexamethyl-5,6,7,8-tetrahydronaphthalen-2-yl)ethanone] |  |  | Positive | 3 |  | 
19 | CC(=O)/C=C/C1=C(C)CCCC1(C)C [(E)-4-(2,6,6-trimethylcyclohex-1-en-1-yl)but-3-en-2-one] | Negative | 1 |  |  |  | 
20 | CC1=CC(C)C(C=O)CC1 (stereo not shown) [2,4-dimethylcyclohex-3-enecarbaldehyde] |  | 3.8 |  |  |  | Good coverage
21 | CC(=O)C1=C(C)C2C[C@@]3(C1)C(CC[C@@H]3C)C2(C)C (stereo partly drawn) [1-((1S,8aS)-1,4,4,6-tetramethyl-2,3,3a,4,5,8-hexahydro-1H-5,8a-methanoazulen-7-yl)ethanone] | Negative | 1 |  |  |  | 
22 | OCC1COC(Cc2ccccc2)O1 (stereo not shown) [(2-benzyl-1,3-dioxolan-4-yl)methanol] | Negative | 1 |  |  |  | 
23 | CCCC(=O)OC(C)(C)Cc1ccccc1 [2-methyl-1-phenylpropan-2-yl butanoate] | Negative | 3 |  |  |  | 
24 | CC(=O)C1(C)CC2=C(CCCC2(C)C)CC1C (stereo not shown) [1-(2,3,8,8-tetramethyl-1,2,3,4,5,6,7,8-octahydronaphthalen-2-yl)ethanone] |  |  | Positive | 1 | No effect | 

Row | SMILES | Impact on scalp MOC of fragrance composition ([1]; Table 4) | MO intensity [2, 3] | Impact on scalp MOC of fragrance composition ([1]; Table 3) | MO intensity [2, 4] | Scalp MOC of ingredient alone ([2]; Table 3, gas phase) | Scalp MOC of ingredient alone ([2]; Table 4, gas phase)
25 | CC(C)c1ccc(CO)cc1 [(4-isopropylphenyl)methanol] |  |  | Positive | 2 |  | 
26 | c1ccc2[nH]ccc2c1 [1H-indole] |  |  | Positive | 4 |  | 
27 | CCCCCC/C=C/C(=O)OC [(E)-methyl non-2-enoate] |  |  | Positive | 1 | No effect | 
28 | CCCCCCCC(=O)OCC [ethyl octanoate] |  |  | Positive | 1 | No effect | 
29 | CC(=O)c1ccc2ccccc2c1 [1-(2-naphtalenyl)-ethanone] | Negative | 1 |  |  |  | 
30 | C/C=C/c1ccc(OC)c(OC)c1 [(E)-1,2-dimethoxy-4-(prop-1-en-1-yl)benzene] | Negative | 3.3 |  |  |  | 
31 | CC/C=C\CCOC(=O)c1ccccc1 [(Z)-hex-3-en-1-yl benzoate] | Negative | 2 |  |  |  | Low coverage
32 | O=C(OC1CCCCC1)c1ccccc1O [cyclohexyl 2-hydroxybenzoate] |  |  | Positive | 1 | No effect | 
33 | CCOC(=O)CC1(C)OCCO1 [ethyl 2-(2-methyl-1,3-dioxolan-2-yl)acetate] |  |  | Positive | 2.3 |  | 
34 | CC1C/C=C/CCCCCCCC(=O)OCC1 (stereo not shown) [(E)-13-methyloxacyclopentadec-10-en-2-one] |  |  | Positive | 2 |  | 
35 | CCC1OC(C)=C(O)C1=O (stereo not shown) [2-ethyl-4-hydroxy-5-methylfuran-3(2H)-one] | Negative | 4.5 |  |  |  | 
36 | CC(=O)/C(C)=C/C1C(C)=CCCC1(C)C (stereo not shown) [(E)-3-methyl-4-(2,6,6-trimethylcyclohex-2-en-1-yl)but-3-en-2-one] |  |  | Positive | 3 |  | 
37 | C=CCc1ccc(O)c(OC)c1 [4-allyl-2-methoxyphenol] |  |  | Positive | 4 |  | 
38 | COc1ccc(CC(C)C=O)cc1 (stereo not shown) [3-(4-methoxyphenyl)-2-methylpropanal] |  |  | Positive | 1 | No effect | 
39 | C=CCc1ccc(OC(C)=O)c(OC)c1 [4-allyl-2-methoxyphenyl acetate] | Negative | 1 |  |  |  | 
40 | C[C@@H]1CC[C@H]2C(C)(C)[C@H]3C[C@@]12CC1OC(C)(C)OC13C (stereo partly drawn) [(4aR,5R,7aS,9R)-Octahydro-2,2,5,8,8,9a-hexamethyl-4H-4a,9-methanoazuleno[5,6-d]-1,3-dioxole] |  |  | Positive | 4 |  | 
41 | CCOC(=O)C1=C(C)C=CCC1(C)C [ethyl 2,6,6-trimethylcyclohexa-1,3-diene-1-carboxylate] | Negative | 1 |  |  |  | 
42 | C/C=C/C(=O)C1C(C)=CCCC1(C)C (stereo not shown) [(E)-1-(2,6,6-trimethylcyclohex-2-en-1-yl)but-2-en-1-one] |  |  | Positive | 3.7 |  | 
43 | CCCCCC1(C)CCC(C)(C)C1=O (stereo not shown) [2,2,5-trimethyl-5-pentylcyclopentanone] |  |  | Positive | 3.5 |  | 
44 | C=CCOC(=O)COC1CCCCC1 [allyl 2-(cyclohexyloxy)acetate] | Negative | 4.3 |  |  |  | 
45 | CCOc1cc(C)ccc1O [2-ethoxy-4-methylphenol] |  |  | Positive | 2.8 |  | 
46 | O=Cc1ccc2c(c1)OCO2 [benzo[d][1,3]dioxole-5-carbaldehyde] |  |  | Positive | 3 |  | 
47 | CC1CCC(C(C)C)C(O)C1 (stereo not shown) [2-isopropyl-5-methylcyclohexanol] |  |  | Positive | 1.2 |  | 
48 | CCC(C)(CCCC(C)C=O)OC (stereo not shown) [6-methoxy-2,6-dimethyloctanal] |  |  | Positive | 3 |  | 
